SMILES strings stand for the structures.

Common to all, as to type: biochemical
In assay [1] the target is ROCK1 (Homo sapiens, UniProt Q13464). Briefly: In vitro inhibitory activity assay ROCK1 (ADP-Glo). The note with it: ATP 200 μM, Cheng-Prusoff; read-out: ROCK 1 (Ki, range of activity). Here is the method: (§1) In Vitro Inhibitory Activity Assay Description ROCK1 and ROCK2
(§2) The effectiveness of compounds of the present invention to inhibit Rho kinase activity can be determined in a 10 μl assay containing 40 mM Tris pH7.5, 20 mM MgCl2 0.1 mg/mL BSA, 50 μM DTT and 2.5 μM peptide substrate (Myelin Basic Protein) using an ADP-Glo kit (Promega). Compounds were dissolved in DMSO such that the final concentration of DMSO was 1% in the assay. All reactions/incubations are performed at 25° C. Compound (2 ul) and either Rho kinase 1 or 2 (4 μl) were mixed and incubated for 30 mins. Reactions were initiated by addition of ATP (4 μl) such that the final concentration of ATP in the assay was 200 μM. After a 1 hour incubation 10 μl of ADP-Glo Reagent was added and after a further 1 hour incubation 20 ul of Kinase Detection Buffer was added and the mixture incubated for a further 45 minutes. The luminescent signal was measured on a luminometer. […] Compounds were tested in dose-response format and the inhibition of kinase activity was calculated at each concentration of compound. To determine the IC50 (concentration of compound required to inhibit 50% of the enzyme activity) data were fit to a plot of % inhibition vs Log 10 compound concentration using a sigmoidal fit with a variable slope and fixing the maximum to 100% and the minimum to 0%. To determine the Ki values the Cheng-Prusoff equation was utilized (Ki=IC50/(1+[S]/Km).
In general terms: ADP-Glo first removes unused ATP, then detects ADP through luciferase.

Assay [2] concerns the target ROCK2 (Homo sapiens, UniProt O75116). The assay is described as follows: In vitro inhibitory activity assay ROCK2 (ADP-Glo). The note with it: ATP 200 μM, Cheng-Prusoff; read-out: ROCK2 (Ki, range of activity). Here is the method:
as §1, §2

Assay [3] has as its target PKA (Homo sapiens, UniProt P17612). The assay is described as follows: In vitro inhibitory activity assay for PKA (ADP-Glo), reported as selectivity ratio vs ROCK2. The settings on record: Ki value for PKA divided by Ki value of ROCK2. Here is the method: In Vitro Inhibitory Activity Assay Description for PKA
The effectiveness of compounds of the present invention to inhibit PKA activity can be determined in a 10 μl assay containing 40 mM Tris pH7.5, 20 mM MgCl2 0.1 mg/ml BSA, 50 μM DTT and 260 μM peptide substrate (kemptide) using an ADP-Glo kit (Promega). Compounds were dissolved in DMSO such that the final concentration of DMSO was 1% in the assay. All reactions/incubations are performed at 25° C. Compound and PKA enzyme (6 μl) were mixed and incubated for 30 mins. Reactions were initiated by addition of ATP (4 μl) such that the final concentration of ATP in the assay was 10 μM. After a 30 minute incubation 10p of ADP-Glo Reagent was added and after a further 1 hour incubation 20 μl of Kinase Detection Buffer was added and the mixture incubated for a further 45 minutes. The luminescent signal was measured on a luminometer. […] Compounds were tested in dose-response format and the inhibition of kinase activity was calculated at each concentration of compound. To determine the IC50 (concentration of compound required to inhibit 50% of the enzyme activity) data were fit to a plot of % inhibition vs Log10 compound concentration using a sigmoidal fit with a variable slope and fixing the maximum to 100% and the minimum to 0%. To determine the Ki values the Cheng-Prusoff equation was utilized (Ki=IC50/(1+[S]/Km).
In vitro inhibitory activities for PKA were reported as selectivity ratio vs. ROCK-2.

Sequence of ROCK2 (O75116 whole entry): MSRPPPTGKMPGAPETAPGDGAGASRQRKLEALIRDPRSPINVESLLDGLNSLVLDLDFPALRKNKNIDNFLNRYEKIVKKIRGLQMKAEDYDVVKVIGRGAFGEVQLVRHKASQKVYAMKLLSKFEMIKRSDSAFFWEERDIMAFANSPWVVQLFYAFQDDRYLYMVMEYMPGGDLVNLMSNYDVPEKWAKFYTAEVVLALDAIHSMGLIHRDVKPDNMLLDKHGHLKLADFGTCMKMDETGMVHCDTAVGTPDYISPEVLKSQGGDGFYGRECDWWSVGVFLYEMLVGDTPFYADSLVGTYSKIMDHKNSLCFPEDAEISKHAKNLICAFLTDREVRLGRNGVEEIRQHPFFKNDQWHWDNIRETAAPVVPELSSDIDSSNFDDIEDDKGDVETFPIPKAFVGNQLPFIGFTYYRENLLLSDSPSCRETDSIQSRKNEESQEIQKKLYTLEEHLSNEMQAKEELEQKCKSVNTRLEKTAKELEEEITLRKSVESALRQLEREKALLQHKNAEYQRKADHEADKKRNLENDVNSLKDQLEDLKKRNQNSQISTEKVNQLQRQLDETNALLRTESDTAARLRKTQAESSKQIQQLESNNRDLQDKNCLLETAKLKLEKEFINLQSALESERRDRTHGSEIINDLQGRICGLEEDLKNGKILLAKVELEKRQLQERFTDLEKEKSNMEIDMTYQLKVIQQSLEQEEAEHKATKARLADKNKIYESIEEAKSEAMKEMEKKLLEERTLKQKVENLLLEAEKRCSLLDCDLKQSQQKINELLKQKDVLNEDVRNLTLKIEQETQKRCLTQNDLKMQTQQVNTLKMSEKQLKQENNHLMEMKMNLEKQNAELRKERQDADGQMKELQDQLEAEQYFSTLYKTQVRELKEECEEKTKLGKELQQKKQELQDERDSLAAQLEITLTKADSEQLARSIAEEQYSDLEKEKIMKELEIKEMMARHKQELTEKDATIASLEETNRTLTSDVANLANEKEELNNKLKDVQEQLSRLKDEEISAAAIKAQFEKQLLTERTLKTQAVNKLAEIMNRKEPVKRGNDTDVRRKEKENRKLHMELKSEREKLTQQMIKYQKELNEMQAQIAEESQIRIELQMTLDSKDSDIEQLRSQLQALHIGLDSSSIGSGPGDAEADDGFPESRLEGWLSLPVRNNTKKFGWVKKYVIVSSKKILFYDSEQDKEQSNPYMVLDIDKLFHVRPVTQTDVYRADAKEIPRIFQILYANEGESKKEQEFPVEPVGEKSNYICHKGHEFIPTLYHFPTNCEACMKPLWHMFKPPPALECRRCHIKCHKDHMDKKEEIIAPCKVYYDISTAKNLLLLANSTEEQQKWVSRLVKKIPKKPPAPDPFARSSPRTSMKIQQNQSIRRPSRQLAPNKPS
Sequence of ROCK1 (Q13464 whole entry): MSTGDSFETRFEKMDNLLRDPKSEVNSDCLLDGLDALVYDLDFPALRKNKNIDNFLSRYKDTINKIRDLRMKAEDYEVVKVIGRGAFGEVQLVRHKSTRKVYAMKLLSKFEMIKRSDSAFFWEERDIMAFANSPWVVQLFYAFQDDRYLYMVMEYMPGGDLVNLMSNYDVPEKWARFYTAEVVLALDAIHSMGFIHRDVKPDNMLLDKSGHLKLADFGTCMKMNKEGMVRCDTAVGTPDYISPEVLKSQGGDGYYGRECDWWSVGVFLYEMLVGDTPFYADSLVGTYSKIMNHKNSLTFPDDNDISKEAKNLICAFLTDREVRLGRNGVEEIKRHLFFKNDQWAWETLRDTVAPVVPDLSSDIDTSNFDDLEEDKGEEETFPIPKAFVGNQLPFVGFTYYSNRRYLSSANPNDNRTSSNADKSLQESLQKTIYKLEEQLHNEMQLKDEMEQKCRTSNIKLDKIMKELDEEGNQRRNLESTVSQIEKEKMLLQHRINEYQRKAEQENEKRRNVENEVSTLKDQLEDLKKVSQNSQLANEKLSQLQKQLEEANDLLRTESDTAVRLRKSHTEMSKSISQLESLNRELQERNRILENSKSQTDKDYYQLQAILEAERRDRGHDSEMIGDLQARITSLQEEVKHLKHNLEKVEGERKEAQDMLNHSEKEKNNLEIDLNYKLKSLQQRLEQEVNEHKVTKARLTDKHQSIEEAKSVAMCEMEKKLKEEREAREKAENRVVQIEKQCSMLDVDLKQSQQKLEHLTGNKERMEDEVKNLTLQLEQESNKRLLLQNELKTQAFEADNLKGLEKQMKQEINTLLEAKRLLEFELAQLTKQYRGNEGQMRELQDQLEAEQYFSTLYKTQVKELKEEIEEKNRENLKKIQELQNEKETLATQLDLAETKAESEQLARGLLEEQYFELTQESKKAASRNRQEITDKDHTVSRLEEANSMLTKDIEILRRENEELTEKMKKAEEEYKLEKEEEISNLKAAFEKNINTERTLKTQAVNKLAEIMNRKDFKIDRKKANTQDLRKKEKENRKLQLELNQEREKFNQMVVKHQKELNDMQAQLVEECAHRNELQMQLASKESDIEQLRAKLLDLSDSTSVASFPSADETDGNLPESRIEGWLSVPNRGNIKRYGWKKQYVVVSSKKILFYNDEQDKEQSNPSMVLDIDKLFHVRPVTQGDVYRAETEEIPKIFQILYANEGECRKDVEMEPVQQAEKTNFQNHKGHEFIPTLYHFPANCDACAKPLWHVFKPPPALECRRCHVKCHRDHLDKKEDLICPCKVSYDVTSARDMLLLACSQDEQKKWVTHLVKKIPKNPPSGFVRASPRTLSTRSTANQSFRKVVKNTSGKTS

As a reminder, the Ki is the dissociation constant of the complex between target and ligand, obtained from inhibition or displacement. With `CN1CCC(NC(=O)c2cccc(CNc3ncc(-c4ccnc(N)n4)c4c3CCO4)c2)CC1` [Example 13, 3-(((7-(2-Aminopyrimidin-4-yl)-2,3-dihydrofuro[3,2-c]pyridin-4-yl)amino)methyl)-N-(1-methylpiperidin-4-yl)benzamide], the Ki in assay [1] and in assay [2] was at most 3 nM in each case. The “Ratio (PKA/ROCK2)” value in assay [3] is “*** (ratio≥10)”.

As for `Nc1nccc(-c2cnc(NCc3cccc(C(=O)NCCCOC(F)F)c3)c3c2OCC3)n1` [Example 14, 3-(((7-(2-Aminopyrimidin-4-yl)-2,3-dihydrofuro[3,2-c]pyridin-4-yl)amino)methyl)-N-(3-(difluoromethoxy)propyl)benzamide], the Ki in assay [1] and in assay [2] was at most 3 nM in each case. Also, the “Ratio (PKA/ROCK2)” value in assay [3] is “*** (ratio≥10)”.

With `CC(C)OCCCNC(=O)c1cccc(CNc2ncc(-c3ccnc(N)n3)c3c2CCO3)c1` [Example 15, 3-(((7-(2-Aminopyrimidin-4-yl)-2,3-dihydrofuro[3,2-c]pyridin-4-yl)amino)methyl)-N-(3-isopropoxypropyl)benzamide], the Ki in assay [1] and in assay [2] was at most 3 nM in each case. Besides, the “Ratio (PKA/ROCK2)” value in assay [3] was “*** (ratio≥10)”.

In the case of `Nc1nccc(-c2cnc(NCc3cccc(C(=O)NCCCN4CCOCC4)c3)c3c2OCC3)n1` [Example 16, 3-(((7-(2-Aminopyrimidin-4-yl)-2,3-dihydrofuro[3,2-c]pyridin-4-yl)amino)methyl)-N-(3-morpholinopropyl)benzamide], the Ki in assay [1] and in assay [2] was at most 3 nM throughout. For the same compound, the “Ratio (PKA/ROCK2)” value in assay [3] was “*** (ratio≥10)”.

Take `CC(C)(O)CNC(=O)c1cccc(CNc2ncc(-c3ccnc(N)n3)c3c2CCO3)c1` [Example 17, 3-(((7-(2-Aminopyrimidin-4-yl)-2,3-dihydrofuro[3,2-c]pyridin-4-yl)amino)methyl)-N-(2-hydroxy-2-methylpropyl)benzamide]: the Ki in assay [1] and in assay [2] was at most 3 nM each time. The “Ratio (PKA/ROCK2)” value in assay [3] is reported as “*** (ratio≥10)”.

On to `CO[C@H]1C[C@@H](NC(=O)c2cccc(CNc3ncc(-c4ccnc(N)n4)c4c3CCO4)c2)C1` [Example 18, 3-(((7-(2-aminopyrimidin-4-yl)-2,3-dihydrofuro[3,2-c]pyridin-4-yl)amino)methyl)-N-((1s,3s)-3-methoxycyclobutyl)benzamide], for which the Ki in assay [1] and in assay [2] was at most 3 nM in each case. Moreover, the “Ratio (PKA/ROCK2)” value in assay [3] is listed as “*** (ratio≥10)”.

Consider `C[C@@H]1CCC[C@H](C)N1CCNC(=O)c1cccc(CNc2ncc(-c3ccnc(N)n3)c3c2CCO3)c1` [Example 19, 3-(((7-(2-Aminopyrimidin-4-yl)-2,3-dihydrofuro[3,2-c]pyridin-4-yl)amino)methyl)-N-(2-((2R,6S)-2,6-dimethylpiperidin-1-yl)ethyl)benzamide], for which the Ki in assay [1] and in assay [2] was at most 3 nM in each case. Also, the “Ratio (PKA/ROCK2)” value in assay [3] is “*** (ratio≥10)”.

In the case of `CCOCCNC(=O)c1cccc(CNc2ncc(-c3ccnc(N)n3)c3c2CCO3)c1` [Example 20, 3-(((7-(2-Aminopyrimidin-4-yl)-2,3-dihydrofuro[3,2-c]pyridin-4-yl)amino)methyl)-N-(2-ethoxyethyl)benzamide], the Ki in assay [1] and in assay [2] was at most 3 nM throughout. Further, the “Ratio (PKA/ROCK2)” value in assay [3] is recorded as “*** (ratio≥10)”.

Consider `CNC(=O)c1cccc(CNc2ncc(-c3ccnc(N)n3)c3c2CCO3)c1` [Example 21, 3-(((7-(2-Aminopyrimidin-4-yl)-2,3-dihydrofuro[3,2-c]pyridin-4-yl)amino)methyl)-N-methylbenzamide], for which the Ki in assay [1] is 3 to 30 nM; in assay [2] it was at most 3 nM. Also, the “Ratio (PKA/ROCK2)” value in assay [3] was “*** (ratio≥10)”.

For `CC1(NC(=O)c2cccc(CNc3ncc(-c4ccnc(N)n4)c4c3CCO4)c2)CC1` [Example 22, 3-(((7-(2-Aminopyrimidin-4-yl)-2,3-dihydrofuro[3,2-c]pyridin-4-yl)amino)methyl)-N-(1-methylcyclopropyl)benzamide], the Ki in assay [1] and in assay [2] was 3 to 30 nM each time. In addition, the “Ratio (PKA/ROCK2)” value in assay [3] is “** (5≤ratio<10)”.

Take `Nc1nccc(-c2cnc(NCc3cccc(C(=O)N[C@H]4[C@@H]5COC[C@@H]54)c3)c3c2OCC3)n1` [Example 23, 3-(((7-(2-Aminopyrimidin-4-yl)-2,3-dihydrofuro[3,2-c]pyridin-4-yl)amino)methyl)-N-((1R,5S,6r)-3-oxabicyclo[3.1.0]hexan-6-yl)benzamide]: the Ki in assay [1] and in assay [2] was at most 3 nM each time. The “Ratio (PKA/ROCK2)” value in assay [3] is recorded as “*** (ratio≥10)”.

Regarding `Nc1nccc(-c2cnc(NCc3cccc(C(=O)NC4CN(C5COC5)C4)c3)c3c2OCC3)n1` [Example 24, 3-(((7-(2-aminopyrimidin-4-yl)-2,3-dihydrofuro[3,2-c]pyridin-4-yl)amino)methyl)-N-(1-(oxetan-3-yl)azetidin-3-yl)benzamide], the Ki in assay [1] and in assay [2] was at most 3 nM each time. Also, in assay [3], the “Ratio (PKA/ROCK2)” value was “*** (ratio≥10)”.

Regarding `Nc1nccc(-c2cnc(NCc3cccc(C(=O)NCC4CC4)c3)c3c2OCC3)n1` [Example 25, 3-(((7-(2-Aminopyrimidin-4-yl)-2,3-dihydrofuro[3,2-c]pyridin-4-yl)amino)methyl)-N-(cyclopropylmethyl)benzamide], the Ki in assay [1] and in assay [2] was at most 3 nM throughout. Moreover, the “Ratio (PKA/ROCK2)” value in assay [3] was “*** (ratio≥10)”.

Regarding `Nc1nccc(-c2cnc(NCc3cccc(C(=O)N[C@H]4C[C@@H](OC(F)F)C4)c3)c3c2OCC3)n1` [Example 26, 3-(((7-(2-aminopyrimidin-4-yl)-2,3-dihydrofuro[3,2-c]pyridin-4-yl)amino)methyl)-N-((1s,3s)-3-(difluoromethoxy)cyclobutyl)benzamide], the Ki in assay [1] and in assay [2] was at most 3 nM in each case. Further, in assay [3], the “Ratio (PKA/ROCK2)” value is on record as “*** (ratio≥10)”.

As to `COC(C)(C)CNC(=O)c1cccc(CNc2ncc(-c3ccnc(N)n3)c3c2CCO3)c1` [Example 27, 3-(((7-(2-Aminopyrimidin-4-yl)-2,3-dihydrofuro[3,2-c]pyridin-4-yl)amino)methyl)-N-(2-methoxy-2-methylpropyl)benzamide], the Ki in assay [1] and in assay [2] was at most 3 nM each time. In assay [3], the “Ratio (PKA/ROCK2)” value was “*** (ratio≥10)”.

As to `COCC1(CNC(=O)c2cccc(CNc3ncc(-c4ccnc(N)n4)c4c3CCO4)c2)CC1` [Example 28, 3-(((7-(2-Aminopyrimidin-4-yl)-2,3-dihydrofuro[3,2-c]pyridin-4-yl)amino)methyl)-N-((1-(methoxymethyl)cyclopropyl)methyl)benzamide], the Ki is 3 to 30 nM in assay [1] and at most 3 nM in assay [2]. The “Ratio (PKA/ROCK2)” value in assay [3] is “*** (ratio≥10)”.

Turning to `Nc1nccc(-c2cnc(NCc3cccc(C(=O)NCCCF)c3)c3c2OCC3)n1` [Example 29, 3-(((7-(2-Aminopyrimidin-4-yl)-2,3-dihydrofuro[3,2-c]pyridin-4-yl)amino)methyl)-N-(3-fluoropropyl)benzamide], the Ki in assay [1] and in assay [2] was at most 3 nM each time. In addition, the “Ratio (PKA/ROCK2)” value in assay [3] was “*** (ratio≥10)”.

As to `CC1(CNC(=O)c2cccc(CNc3ncc(-c4ccnc(N)n4)c4c3CCO4)c2)CC1` [Example 30, 3-(((7-(2-Aminopyrimidin-4-yl)-2,3-dihydrofuro[3,2-c]pyridin-4-yl)amino)methyl)-N-((1-methylcyclopropyl)methyl)benzamide], the Ki in assay [1] and in assay [2] was at most 3 nM in each case. Also, the “Ratio (PKA/ROCK2)” value in assay [3] is listed as “** (5≤ratio<10)”.

Regarding `CC(C)(F)CNC(=O)c1cccc(CNc2ncc(-c3ccnc(N)n3)c3c2CCO3)c1` [Example 31, 3-(((7-(2-Aminopyrimidin-4-yl)-2,3-dihydrofuro[3,2-c]pyridin-4-yl)amino)methyl)-N-(2-fluoro-2-methylpropyl)benzamide], the Ki in assay [1] and in assay [2] was at most 3 nM each time. Also, the “Ratio (PKA/ROCK2)” value in assay [3] was “*** (ratio≥10)”.

For the origin of these results see patent publication US20240092790A1, “DIHYDROFUROPYRIDINE DERIVATIVES AS RHO- KINASE INHIBITORS” (CHIESI FARMACEUTICI S.P.A., priority 2020, published 2024).
